Measured values: patent publication US6368788B1 (priority 1987, dated 2002)

Assays:
[1] = tested on: peripheral blood lymphocytes; assay: Protocol A3 Group 1B: atypical pyoderma; format: in vivo, human
T-lymphocyte function = assay: Naval specialists with occupational immunologic impairments; format: in vivo, human; details: 3 daily intranasal doses of 100 mcg
Method: A clinical trial was conducted of 152 naval specialists (aged 20-40 years) with evidence of occupational immunologic impairments resulting from their exposure to radiation and occupational toxins in the Kosomolets nuclear submarine sinking off the coast of […]. L-Glu-L-Trp was evaluated for its possible effects on cellular and/or humoral immunity. Approximately 87% of the servicemen entered into the trial had moderate to severely impaired T-lymphocyte functional activity, (i.e., evidenced by decreased LMIR and blastogenesis with Con-A) and reduced neutrophil phagocytic activity (i.e., 30-40% of normal). Immune parameters were determined before and after a routine 21-24 day rest period, during a normal rest/recuperation and training rotation. Servicemen were divided into two groups, the first (control) group received no treatment, and the second (experimental) group of 88 servicemen received three consecutive daily intranasal doses of 100 mcg L-Glu-L-Trp.

[2] = Complications of pregnancy (Protocol C); design: species or system human; details: in vivo
Method: L-Glu-L-Trp was administered to 34 pregnant women and 27 pregnant women receiving conventional treatment served as a control group. […] Signs of clinical improvement were resolution of weakness and dizziness, increased appetite, and the normalization of the immunological and hematological indices.

C. albicans = assay: Disseminated candidiasis: mean survival and kidney infection (Study 41B); format: in vivo, mice; details: for Kidney Infection: greater than 8 logs of C. albicans, day 5
Method: Study 41B: Using a standardized inoculum (i.e., 10^8 cells/mL), the LD95 value (=14.9×10^6 cells/animal) was determined by injecting different numbers of C. albicans cells iv into mice and recording deaths at 20 days. L-Glu-L-Trp was administered ip at doses of 1, 10, 100 and 300 μg/kg in either a prophylactic or therapeutic drug regimen (abbreviated PDR or TDR, respectively). Prophylaxis consisted of 3 ip injections on 3 consecutive days, with the last injection being 3 hours before injecting the C. albicans cells iv. Therapy consisted of 10 consecutive daily ip injections starting 24 hours after the iv injection of the C. albicans cells. Mean survival was determined at 10 days, and as an independent monitor for infection, kidneys were removed from nine parallel groups (12 animals each) of infected animals at 5 days and after microbiological isolation the numbers of C. albicans cultures counted.

Transfusion reactions = assay: Transfusion reactions; design: species or system human; details: in vivo
Method: Seventy-six patients (76) requiring hemotransfusion therapy with allogeneic blood were treated with L-Glu-L-Trp in the post-operative period, starting at day 4-6 post-op. Seventy-two patients (72) in a control group received conventional post-operative treatment. L-Glu-L-Trp treatment was administered as a single daily im dose of 100 μg on each of 5 consecutive days, or alternatively, at a dose of 1 μg/kg delivered on the same schedule by the intranasal route.

[3] = Dental caries: toothpaste containing L-Glu-L-Trp; format: in vivo, human
Method: The use of dental toothpaste containing L-Glu-L-Trp will have the secondary effect of reducing incidence and severity of gingival disease. Patients with odontogenic infections and periapical granulomas can be treated with 100 μg of L-Glu-L-Trp instilled into the foramen at the base of the tooth, or alternatively, L-Glu-L-Trp can be compounded in a filling paste which is packed into the base of the tooth.

Chronic osteomyelitis = assay: Chronic osteomyelitis; design: species or system human; details: in vivo
Method: L-Glu-L-Trp was administered to 176 patients with chronic osteomyelitis of various etiology and bone localizations. The control group consisted of 88 patients receiving conventional treatment. L-Glu-L-Trp was administered im as a single daily dosage of 100 μg, or intranasally at a dose of 1 μg/kg daily, over a period of 10 days.

[4] = Survival in LPS-induced endotoxic shock; format: in vivo, CBA mice; details: 100 μg/kg prophylactic
Method: The mortality results were evaluated using the Litchfield-Wilcoxon's probit analysis method and a computer program written to conduct probit analyses.

[5] = Group 1B atypical pyoderma, after L-Glu-L-Trp Therapy (n = 10)

Substance: L-Glu-L-Trp
- B-Lymphocytes [1, 5]: 0.14 ± 0 ×10^9/L
- B-Lymphocytes % Normal Value [1, 5]: (29%)
- B-Lymphocytes (%) [1, 5]: 8.5 ± 1%
- Basophils (%) [1, 5]: 0.1 ± 0%
- Eosinophils (%) [1, 5]: 0.5 ± 1%
- Erythrocytes [1, 5]: 4.1 ± 0.1 10^12/L
- IgA [1, 5]: 2.21 ± 0 g/L
- IgA % Normal Value [1, 5]: (117%)
- IgG [1, 5]: 16.6 ± 2 g/L
- IgG % Normal Value [1, 5]: (154%)
- IgM [1, 5]: 1.64 ± 0 g/L
- IgM % Normal Value [1, 5]: (104%)
- Leukocytes [1, 5]: 6.2 ± 1 ×10^9/L
- Leukocytes % Normal Value [1, 5]: (93%)
- Lymphocytes [1, 5]: 2.14 ± 0 ×10^9/L
- Lymphocytes % Normal Value [1, 5]: (76%)
- Lymphocytes, % [1, 5]: 34.5 ± 4%
- Monocytes, % [1, 5]: 2.3 ± 1.6%
- Neutrophils, % [1, 5]: 66.5 ± 3.2%
- T-Lymphocytes [1, 5]: 0.87 ± 0 ×10^9/L
- T-Lymphocytes % Normal Value [1, 5]: (51%)
- T-Lymphocytes (%) [1, 5]: 55.1 ± 6%
- T-helper [1, 5]: 0.53 ± 0 ×10^9/L
- T-helper % Normal Value [1, 5]: (40%)
- T-helper (%) [1, 5]: 32.1 ± 3%
- T-suppressor [1, 5]: 0.49 ± 0 ×10^9/L
- T-suppressor % Normal Value [1, 5]: (126%)
- T-suppressor (%) [1, 5]: 23.1 ± 5%
- Blast Transform., Con-A ([1]; Group 1B, L-Glu-L-Trp Therapy): 96.1 ± 4 % of PBL
- Blast Transform., PHA ([1]; Group 1B, L-Glu-L-Trp Therapy): 87.5 ± 5 % of PBL
- Blast Transform., Staph-A ([1]; Group 1B, L-Glu-L-Trp Therapy): 75.3 ± 1 % of PBL
- Clinical outcome ([1]; in vivo): did not turn out to be effective clinically
- T-lymphocyte function, T4/T8 ratio, granulocyte lysosomal cation proteins (T-lymphocyte function): pronounced increase
- Clinical outcome [2]: Decreased fetal hypoxia
- Survival % 6d (C. albicans; PDR, 1 μg/kg ip): 50%
- Survival % 8d (C. albicans; PDR, 1 μg/kg ip): 20%
- Survival Mean (C. albicans; PDR, 1 μg/kg ip): 6.2 ± 2.0 days
- Kidney Infection (C. albicans; PDR, 1 μg/kg ip): 58%
- Survival % 6d (C. albicans; PDR, 10 μg/kg ip): 60%
- Survival % 8d (C. albicans; PDR, 10 μg/kg ip): 20%
- Survival Mean (C. albicans; PDR, 10 μg/kg ip): 6.4 ± 2.2 days
- Kidney Infection (C. albicans; PDR, 10 μg/kg ip): 58%
- Survival % 6d (C. albicans; PDR, 100 μg/kg ip): 80%
- Survival % 8d (C. albicans; PDR, 100 μg/kg ip): 40%
- Survival Mean (C. albicans; PDR, 100 μg/kg ip): 7.9 ± 1.9 days
- Kidney Infection (C. albicans; PDR, 100 μg/kg ip): 75%
- Survival % 6d (C. albicans; PDR, 300 μg/kg ip): 80%
- Survival % 8d (C. albicans; PDR, 300 μg/kg ip): 50%
- Survival Mean (C. albicans; PDR, 300 μg/kg ip): 7.8 ± 2.1 days
- Kidney Infection (C. albicans; PDR, 300 μg/kg ip): 58%
- Survival % 6d (C. albicans; TDR, 1 μg/kg ip): 60%
- Survival % 8d (C. albicans; TDR, 1 μg/kg ip): 50%
- Survival Mean (C. albicans; TDR, 1 μg/kg ip): 7.3 ± 2.7 days
- Kidney Infection (C. albicans; TDR, 1 μg/kg ip): 67%
- Survival % 6d (C. albicans; TDR, 10 μg/kg ip): 50%
- Survival % 8d (C. albicans; TDR, 10 μg/kg ip): 30%
- Survival Mean (C. albicans; TDR, 10 μg/kg ip): 6.2 ± 2.2 days
- Kidney Infection (C. albicans; TDR, 10 μg/kg ip): 50%
- Survival % 6d (C. albicans; TDR, 100 μg/kg ip): 80%
- Survival % 8d (C. albicans; TDR, 100 μg/kg ip): 50%
- Survival Mean (C. albicans; TDR, 100 μg/kg ip): 7.8 ± 1.9 days
- Kidney Infection (C. albicans; TDR, 100 μg/kg ip): 75%
- Survival % 6d (C. albicans; TDR, 300 μg/kg ip): 80%
- Survival % 8d (C. albicans; TDR, 300 μg/kg ip): 40%
- Survival Mean (C. albicans; TDR, 300 μg/kg ip): 7.8 ± 2.1 days
- Kidney Infection (C. albicans; TDR, 300 μg/kg ip): 67%
- Survival (C. albicans; prophylactic and therapeutic treatments): significantly increased the number of animals surviving at days 6 and 8
- Clinical outcome (Transfusion reactions): None of L-Glu-L-Trp treated patients showed clinical manifestations of allogeneic hemotransfusion reactions
- Clinical outcome [3]: reduction of caries
- Clinical outcome (Chronic osteomyelitis): pronounced positive effect on clinical course
- Survivors at 24 hr. and 30 hr. [4]: statistically significant difference in the number of survivors
